Results on three compounds are retold here after patent US20090270255A1 (priority 2005, published 2009).

This assay relates to Pyricularia oryzae. Format: cell-based.
Where [1] appears, read: single active compound, conc. 1 ppm, MTP measured at 405 nm on day 7 after inoculation, 18° C.

Read-outs that look alike come from different tables or passages of the source.

As to `Fc1ccc(C2(Cn3cncn3)OC2c2ccccc2Cl)cc1` (stereo not shown) [Epoxiconazole, epoxiconazole], the “Observed effect (%)” value under setting [1] is listed as 0%.

In the case of `CC1(C)CC/C(=C\c2ccc(Cl)cc2)C1(O)Cn1cncn1` (stereo not shown) [Triticonazole, triticonazole], the “Observed effect (%)” value is, setting by setting: under setting [1], 3%; (single active compound, conc. 4 ppm, MTP measured at 405 nm on day 7 after inoculation, 18° C.) 13%.

In the case of bromuconazole, the “Observed effect (%)” value was 0%.
